Data taken from patent US20060014726A1, “Derivatives of cyclic1, 3- propanediol phosphate and their action in differentiation therapy” (priority 2002, published 2006).

Assays:
[1] = system: estrogen receptor-α (ER-α) in MCF-7 cells; assay: Western blot analysis of ER-α level in MCF-7 cells; assay type: cell-based, human; settings: MCF-7 cells; for increase in the level of wild type ER-α receptor (MW 70,000): 1-100 μM 1,3cPP
Experimental: (§1) Turning to FIG. 1 there are shown Western blot analyses showing the effect of 1,3cPP on the expression level of ER-α. In the ER-α assay, MCF-7 cells were incubated with 1-100 μM 1,3cPP for up to 14 days. The analysis indicates a relative increase in the level of wild type ER-α receptor (MW 70,000) with either an increase in 1,3cPP concentration or time of incubation. On days 6 and 14, a nearly 2-fold and 3-fold increase were observed, respectively (FIGS. 1A, C, D, F). […] This band could be related to one of deleted exons D3-4 (MW 49,000), D4 (MW 54,000), or D7 (MW 51,000) ER-α variants.
Breast Cancer Cells. The human breast cancer MCF-7 cell line were obtained from Prof. Hadassa Degani, of Weizmann Institute of Science, Rehovot, Israel. The cells were grown as monolayers in high glucose DMEM supplemented with 6% fetal calf serum and combined antibiotics. Human breast cancer T47D cells, clones 8 (ER^loPR^lo) and 11 (ER^+PR^+) were obtained from Prof Iafa Keydar, Tel-Aviv university and were grown in DMEM supplemented with 10% fetakl calf serum antibiotics. K562 erythroleukemia cells were obtained from Dr. Alfa Peled of Weizmann Institute of Science, Rehovot, Israel. These cells were grown in RPMI 1640 containing 10% fetal calf serum and antibiotics. All lines were grown at 37° C. in the presence of 5% CO2. The absence of Mycoplasma contamination was monitored by a Mycotrim TC test (Irvine Scientific, Santa Ana, Calif.) carried out once every 3 months.
For ER-α protein analysis, MCF-7 and T47D cells were cultured in 60×15 mm petri dishes. From the second day of culture onward, the cells were treated with various concentrations of 1,3cPP for up to 14 days. At the end of the incubation period, the medium was aspirated and the cells were washed 3 times with cold (4° C.) PBS. The cells were then gently scraped off using a rubber policeman in 0.25 ml of lysis buffer composed of 50 mM β-glycerophosphate, 1 mM DTT, 1.5 mM EGTA, 1 mM EDTA, 1% (Octylphenoxy)polyethoxyethanol (IGEPAL, Sigma, St. Louis, Mo.), a nonionic detergent, and a cocktail of protease inhibitors, including 1 mM phenylmethylsulfonyl fluoride (PMSF), 1 mM benzamidine, 10 μg/ml aprotinin, 10 μg/ml leupeptin, and 2 μg/ml pepstanin, as well as 1 mM sodium orthovanadate (Sigma, St. Louis, Mo.) as a phosphatase inhibitor. […] The protein concentration in each sample (1.5-4 mg/ml) was determined using the Coomassie Protein Assay (Pierce, Rockford, Ill.) according to the manufacturer's instructions. […] Bound antibodies were detected by horseradish peroxidase-conjugated goat anti-rabbit IgG, (Transduction Laboratories, Lexington, Ky. using the ECL detection method. Band densities were quantified by densitometry (Biorad model GS-690 Imaging densitometer) using Molecular Analyst software.

ER-α in T47D cells = assay: Western blot analysis of ER-α level in T47D cells; assay type: cell-based, human; settings: 15 μM
Experimental: as §1
Breast Cancer Cells. The human breast cancer MCF-7 cell line were obtained from Prof. […] The absence of Mycoplasma contamination was monitored by a Mycotrim TC test (Irvine Scientific, Santa Ana, Calif.) carried out once every 3 months.
For ER-α protein analysis, MCF-7 and T47D cells were cultured in 60×15 mm petri dishes. […] The protein concentration in each sample (1.5-4 mg/ml) was determined using the Coomassie Protein Assay (Pierce, Rockford, Ill.) according to the manufacturer's instructions. […] Bound antibodies were detected by horseradish peroxidase-conjugated goat anti-rabbit IgG, (Transduction Laboratories, Lexington, Ky. using the ECL detection method. Band densities were quantified by densitometry (Biorad model GS-690 Imaging densitometer) using Molecular Analyst software.

O=P1(O)OCCCO1 [1,3-cPP, 1,3-cyclic propanediol phosphate]
increase in the level of wild type ER-α receptor (MW 70,000) ([1]; day 6, Western blot densitometry): ~2 fold
increase in the level of wild type ER-α receptor (MW 70,000) ([1]; day 14, Western blot densitometry): ~3 fold
increase in the intensity of a ER variant with an approximate MW of 50,000 ([1]; day 11, Western blot): 5 fold
level of wild type ER-α receptor (ER-α in T47D cells; T47D (ER+PR+) clone 11 cells, 6 days): sharp increase
expression of variant ER-α (MW≈40,000) (ER-α in T47D cells; T47D clone 8 (ERlo PRlo), 3 days incubation): sharp increase
